Measurements as given in patent US11466019B2, “Triazolo[4,5-d] pyramidine derivatives and their use as purine receptor antagonists” (Vernalis (R&D) Limited, priority 2008, dated 2022).
pKi: −log10 of the molar value. Like-named read-outs stand apart in the source and are kept apart here.

Assays:
[1] = target: T1, human adenosine A2A receptors (Homo sapiens, UniProt P29274); assay: Adenosine receptor binding: binding affinities at hA2A receptors ([3H]CGS-21680 displacement); settings: read-out: Binding Affinity hA2A-Ki
T1 construct: host or cells: HEK-293
Experimental: Adenosine Receptor Binding: Binding Affinities at hA2A Receptors
(§1) The resultant homogenate was kept for immediate use in the binding assay. Binding assays were performed in a total volume of 250 μL, containing [^3H]-CGS21680 (20.0 nM), membranes and additional drugs. Total binding was determined using drug dilution buffer (50 mM Tris-HCl pH 7.5, 10 mM MgCl2, 5% DMSO). Non-specific binding was determined using 300 μM CHA. […] Filters were left to dry overnight, and Microscint-0 scintillation fluid was then added to the filters. The filters were then left for at least 2 hours before the radioactivity was assessed using a Canberra Packard TopCount microplate scintillation counter.
To determine the free ligand concentration, three vials were counted with 25 μL of [^3H]CGS21680 containing 4 mL of Ultima-Gold MV scintillant on a Beckman LS6500 multi-purpose scintillation counter.
(§2) Data was analysed using a 4 parameter logistical equation and non-linear regression which yields affinity constants (pIC50), and slope parameters:
(§3) [formula] where E is the quantity of binding and [A] is the competitor concentration. The Ki is then determined using the Cheng-Prusoff equation: […]

[2] = target: T2, hA2B receptors (Homo sapiens, UniProt P29275); assay: Adenosine receptor binding: binding affinities at hA2B receptors ([3H]-ZM241385 displacement); settings: for pKi: read-out: Binding Affinity hA2B-Ki; for Binding Selectivity A2b/A2a: ratio of Ki values
T2 construct: host or cells: HEK-293
T2 sequence (P29275 1-332): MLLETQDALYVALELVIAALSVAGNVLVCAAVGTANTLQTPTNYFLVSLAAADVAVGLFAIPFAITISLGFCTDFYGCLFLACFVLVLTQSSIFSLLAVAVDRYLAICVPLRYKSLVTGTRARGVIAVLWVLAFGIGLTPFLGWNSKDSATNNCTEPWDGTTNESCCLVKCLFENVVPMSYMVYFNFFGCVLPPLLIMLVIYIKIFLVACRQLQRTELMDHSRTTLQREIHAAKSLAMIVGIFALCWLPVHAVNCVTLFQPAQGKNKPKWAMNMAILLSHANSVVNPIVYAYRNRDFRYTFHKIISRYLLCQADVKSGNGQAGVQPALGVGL

[3] = target: T3, human adenosine A3 receptors (Homo sapiens, UniProt P0DMS8); assay: Adenosine receptor binding: binding affinities at hA3 receptors ([125I]-AB MECA displacement); settings: for Binding Selectivity A3/A2a: ratio of Ki values; for pKi: read-out: Binding Affinity hA3-Ki
T3 construct: expressed in transfected cells; host or cells: CHO-K1
T3 sequence (P0DMS8 1-318): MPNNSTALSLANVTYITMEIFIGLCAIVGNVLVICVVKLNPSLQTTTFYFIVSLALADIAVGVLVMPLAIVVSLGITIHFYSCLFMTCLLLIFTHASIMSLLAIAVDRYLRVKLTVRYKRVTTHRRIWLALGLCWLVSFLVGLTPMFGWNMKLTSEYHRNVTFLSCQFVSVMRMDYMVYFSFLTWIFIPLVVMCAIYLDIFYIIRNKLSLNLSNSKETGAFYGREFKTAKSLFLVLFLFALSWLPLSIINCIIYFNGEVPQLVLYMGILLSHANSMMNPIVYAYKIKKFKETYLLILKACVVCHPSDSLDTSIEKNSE
Experimental: [formula] Adenosine Receptor Binding: Binding Affinities at hA3 Receptors
The resultant homogenate was kept for immediate use in the binding assay.
Total binding was determined using drug dilution buffer (50 mM Tris-HCl pH 7.5, 10 mM MgCl2, 5% DMSO). Non-specific binding was determined using 10 μM IB-MECA. […] Filters were left to dry overnight, and Microscint-0 scintillation fluid was then added to the filters. The filters were then left for at least 2 hours before the radioactivity was assessed using a Canberra Packard TopCount microplate scintillation counter.
as §2, §3

[4] = target: T4, human adenosine A1 receptors (Homo sapiens, UniProt P30542); assay: Adenosine receptor binding: binding affinities at hA1 receptors ([3H]DPCPX displacement); settings: for pKi: read-out: Binding Affinity hA1-Ki; for Binding Selectivity A1/A2a: ratio of Ki values
T4 construct: expressed in transfected cells; host or cells: CHO-K1
T4 sequence (P30542 1-326): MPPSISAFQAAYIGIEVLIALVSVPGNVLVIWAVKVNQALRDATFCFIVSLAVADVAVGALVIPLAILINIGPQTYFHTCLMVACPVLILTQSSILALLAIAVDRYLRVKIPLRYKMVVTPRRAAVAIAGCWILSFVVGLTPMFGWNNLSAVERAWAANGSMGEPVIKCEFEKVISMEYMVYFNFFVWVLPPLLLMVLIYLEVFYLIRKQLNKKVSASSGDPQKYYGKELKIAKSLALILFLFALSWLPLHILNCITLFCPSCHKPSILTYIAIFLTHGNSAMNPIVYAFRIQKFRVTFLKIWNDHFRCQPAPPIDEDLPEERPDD
Experimental: Adenosine Receptor Binding: Binding Affinities at hA1 Receptors
The resultant homogenate was kept for immediate use in the binding.
as §1, with “Binding” for “The resultant homogenate was kept for immediate use in the binding assay. Binding”, “[^3H]-DPCPX (3.0” for “[^3H]-CGS21680 (20.0”, “pH:7.5,” for “pH 7.5,”, “N6-cyclohexyladenosine (CHA).” for “CHA.”
To determine the free ligand concentration, three vials were counted with 25 μL of [^3H]DPCPX containing 4 mL of Ultima-Gold MV scintillant on a Beckman LS6500 multi-purpose scintillation counter.
as §2, §3

[5] = tested on: haloperidol-induced deficits in locomotor activity in mice; assay: Haloperidol-induced hypolocomotion model (HaloLMA); format: in vivo; settings: female TO mice, intraperitoneal, haloperidol 0.2 mg/kg
Description: Evaluation of Potential Anti-Parkinsonian Activity In Vivo: Haloperidol-Induced Hypolocomotion Model
This approach is also considered a valid method for screening drugs with potential antiparkinsonian effects. Thus, the ability of novel adenosine antagonists to block haloperidol-induced deficits in locomotor activity in mice can be used to assess both in vivo and potential antiparkinsonian efficacy.
Female TO mice (25-30 g) are used for all experiments. Animals are housed in groups of 8 (cage size-40 cm (width) by 40 cm (length) by 20 cm (height)) under 12 hour light/dark cycle (lights on 08:00), in a temperature (20±2° C.) and humidity (55±15%) controlled environment. Animals have free access to food and water, and are allowed at least 7 days to acclimatize after delivery before experimental use.
Liquid injectable haloperidol (e.g., 1 mL Serenance ampoules from Baker Norton, Harlow, Essex, each containing haloperidol BP 5 mg) are diluted to a final concentration of 0.02 mg/mL using saline. Test compounds are typically prepared as aqueous suspensions in 8% Tween. All compounds are administered intraperitoneally in a volume of 10 mL/kg.
1.5 hours before testing, mice are administered 0.2 mg/kg haloperidol, a dose that reduces baseline locomotor activity by at least 50%. Test substances are typically administered 5-60 minutes prior to testing. The animals are then placed individually into clean, clear polycarbonate cages (20 cm (width) by 40 cm (length) by 20 cm (height), with a flat perforated, Perspex lid). Horizontal locomotor activity is determined by placing the cages within a frame containing a 3 by 6 array of photocells linked to a computer, which tabulates beam breaks. Mice are left undisturbed to explore for 1 hour, and the number of beams breaks made during this period serves as a record of locomotor activity which is compared with data for control animals for statistically significant differences.
A number of the exemplified compounds of the present invention were tested in this assay and the results obtained are shown in Table 3, below.

[6] = Table 1, [3H]CGS-21680 displacement, HEK-293 membranes
[7] = Table 1, [3H]-ZM241385 displacement, HEK-293 membranes
[8] = Table 1, [3H]DPCPX displacement, CHO-K1 membranes
[9] = Table 1, [125I]-AB MECA displacement, CHO-K1 membranes
[10] = Table 2, comparative compounds of WO 02/055083

T1 sequence (P29274 whole entry): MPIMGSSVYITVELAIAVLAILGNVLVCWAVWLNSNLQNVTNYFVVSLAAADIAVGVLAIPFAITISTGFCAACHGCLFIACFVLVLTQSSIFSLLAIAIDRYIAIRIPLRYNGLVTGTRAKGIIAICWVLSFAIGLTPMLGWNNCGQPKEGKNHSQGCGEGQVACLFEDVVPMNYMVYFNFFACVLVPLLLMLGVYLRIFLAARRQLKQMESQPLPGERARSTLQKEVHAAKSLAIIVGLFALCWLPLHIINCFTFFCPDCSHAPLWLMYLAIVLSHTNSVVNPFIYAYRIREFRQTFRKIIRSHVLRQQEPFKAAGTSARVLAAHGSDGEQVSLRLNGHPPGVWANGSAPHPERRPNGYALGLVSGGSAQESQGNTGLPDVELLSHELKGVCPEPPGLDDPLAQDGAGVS

pKi [1, 6] | pKi [2, 7] | Binding Selectivity A2b/A2a ([2]; Table 1) | Binding Selectivity A3/A2a ([3]; Table 1) | pKi [4, 8] | Binding Selectivity A1/A2a ([4]; Table 1) | pKi [3, 9] | pKi [1, 10] | pKi [2, 10] | Binding Selectivity A2b/A2a ([2]; Table 2) | pKi [3, 10] | Binding Selectivity A3/A2a ([3]; Table 2) | pKi [4, 10] | Binding Selectivity A1/A2a ([4]; Table 2) | Structure (SMILES) | In Vivo activity HaloLMA MED [5] [mg/kg]
7.87 | 5.90 | 93 | 634 | 6.14 | 54 | – | – | – | – | – | – | – | – | Nc1nc(-c2ccccc2)c2nnn(Cc3cccc(CO[C@H]4CCOC4)n3)c2n1 [Example 7, S-7-phenyl-3-(6-[tetrahydrofuran-3-yl]oxymethylpyrid-2-ylmethyl)-3H-[1,2,3]triazolo[4,5-d]pyrimidin-5-amine] | –
8.28 | 5.49 | 634 | 836 | 6.49 | 62 | 5.37 | – | – | – | – | – | – | – | Nc1nc(-c2ccccc2)c2nnn(Cc3cccc(C4(O)CCC4)n3)c2n1 [Example 11, 7-phenyl-3-(6-[1-hydroxycyclobutyl]pyrid-2-ylmethyl)-3H-[1,2,3]triazolo[4,5-d]pyrimidin-5-amine] | –
– | – | – | – | – | – | – | 8.28 | 6.56 | 52 | 6.08 | 156 | 6.99 | 19 | Nc1cccc(Cn2nnc3c(-c4ccccc4)nc(N)nc32)c1 [WO 02/055083 Example 151, 3-(3-aminobenzyl)-7-phenyl-3H-[1,2,3]triazolo[4,5-d]pyrimidine-5-amine, reference compound] | –
8.00 | 5.33 | 472 | 196 | 6.41 | 39 | 5.71 | – | – | – | – | – | – | – | COc1cccc(-c2nc(N)nc3c2nnn3Cc2cccc(C3(O)CCC3)n2)c1 [Example 17, 7-(3-methoxyphenyl)-3-(6-[1-hydroxycyclobutyl]pyrid-2-ylmethyl)-3H-[1,2,3]triazolo[4,5-d]pyrimidin-5-amine] | –

The next lines start with the compound.

Structure (SMILES) | pKi [1, 6] | pKi [2, 7] | Binding Selectivity A2b/A2a ([2]; Table 1) | Binding Selectivity A3/A2a ([3]; Table 1) | pKi [4, 8] | Binding Selectivity A1/A2a ([4]; Table 1) | pKi [3, 9] | pKi [1, 10] | pKi [2, 10] | Binding Selectivity A2b/A2a ([2]; Table 2) | pKi [3, 10] | Binding Selectivity A3/A2a ([3]; Table 2) | pKi [4, 10] | Binding Selectivity A1/A2a ([4]; Table 2) | In Vivo activity HaloLMA MED [5] [mg/kg]
Cc1ccc(-c2nc(N)nc3c2nnn3Cc2cccc(CO[C@H]3CCOC3)n2)o1 [Example 1, S-7-(5-methylfuran-2-yl)-3-(6-[tetrahydrofuran-3-yl]oxymethylpyrid-2-ylmethyl)-3H-[1,2,3]triazolo[4,5-d]pyrimidin-5-amine] | – | – | – | – | – | – | – | – | – | – | – | – | – | – | 0.3
N#Cc1cccc(-c2nc(N)nc3c2nnn3Cc2cccc(C3(O)CCC3)n2)c1 [Example 23, 7-(3-cyanophenyl)-3-(6-[1-hydroxycyclobutyl]pyrid-2-ylmethyl)-3H-[1,2,3]triazolo[4,5-d]pyrimidin-5-amine] | 7.83 | 5.17 | 462 | – | 5.88 | 90 | – | – | – | – | – | – | – | – | –
CC(C)COCc1cccc(Cn2nnc3c(-c4ccco4)nc(N)nc32)n1 [WO 02/055083 Example 217, 7-(2-furyl)-3-(6-isobutyloxymethyl-2-pyridylmethyl)-3H-[1,2,3]triazolo[4,5-d]pyrimidine-5-amine, reference compound] | – | – | – | – | – | – | – | 8.54 | 6.42 | 131 | 6.32 | 163 | 6.82 | 53 | –
Cl.Nc1nc(-c2ccco2)c2nnn(Cc3cccc(CO)n3)c2n1 [WO 02/055083 Example 213, 7-(2-furyl)-3-(6-hydroxymethyl-2-pyridylmethyl)-3H-[1,2,3]triazolo[4,5-d]pyrimidine-5-amine hydrochloride, reference compound] | – | – | – | – | – | – | – | 8.57 | 6.57 | 100 | 5.77 | 625 | 6.23 | 216 | –
COCc1cccc(Cn2nnc3c(-c4ccc(C)o4)nc(N)nc32)n1 [WO 02/055083 Example 183, 3-(6-methoxymethyl-2-pyridylmethyl)-7-(5-methyl-2-furyl)-3H-[1,2,3]triazolo[4,5-d]pyrimidine-5-amine, reference compound] | – | – | – | – | – | – | – | 8.89 | 6.64 | 183 | 6.18 | 519 | 7.08 | 67 | –
N#Cc1cccc(-c2nc(N)nc3c2nnn3Cc2cccc(C3(O)CCCC3)n2)c1 [Example 21, 7-(3-cyanophenyl)-3-(6-[1-hydroxy-1-cyclopentyl]pyrid-2-ylmethyl)-3H-[1,2,3]triazolo[4,5-d]pyrimidin-5-amine] | 7.62 | 5.69 | 86 | – | 5.62 | 100 | – | – | – | – | – | – | – | – | –
CC(C)OCc1cccc(Cn2nnc3c(-c4ccco4)nc(N)nc32)n1 [WO 02/055083 Example 247, 7-(2-furyl)-3-(6-isopropoxymethyl-2-pyridylmethyl)-3H-[1,2,3]triazolo[4,5-d]pyrimidine-5-amine, reference compound] | – | – | – | – | – | – | – | 8.52 | 6.34 | 151 | 5.84 | 487 | 6.56 | 92 | –
